Assay results reported in publication PMC5773950 (British Journal of Pharmacology, 2018).
Like-named read-outs stand apart in the source and are kept apart here. Marks after values point to notes of the source that are not given here.

Tests used:
human NET [1] = molecular target: T1, human NET (Homo sapiens, UniProt P23975); experiment: Transporter-mediated noradrenaline release from preloaded HEK 293 cells; type: cell-based; conditions: 100 μM, 45 min, compared with nisoxetine (negative control)
human SERT [2] = molecular target: T2, human SERT (Homo sapiens, UniProt P31645); experiment: Transporter-mediated 5-HT release from preloaded HEK 293 cells; type: cell-based; conditions: 100 μM, 15 min, compared with citalopram (negative control)
human SERT [3] = molecular target: T2, human SERT; experiment: cell-based
human DAT = human DAT (Homo sapiens, UniProt Q01959); experiment: cell-based
5‐HT1A receptor = molecular target: T3, 5‐HT1A receptor (Homo sapiens, UniProt P08908); experiment: biochemical; type: binding
T3 sequence (P08908 1-422): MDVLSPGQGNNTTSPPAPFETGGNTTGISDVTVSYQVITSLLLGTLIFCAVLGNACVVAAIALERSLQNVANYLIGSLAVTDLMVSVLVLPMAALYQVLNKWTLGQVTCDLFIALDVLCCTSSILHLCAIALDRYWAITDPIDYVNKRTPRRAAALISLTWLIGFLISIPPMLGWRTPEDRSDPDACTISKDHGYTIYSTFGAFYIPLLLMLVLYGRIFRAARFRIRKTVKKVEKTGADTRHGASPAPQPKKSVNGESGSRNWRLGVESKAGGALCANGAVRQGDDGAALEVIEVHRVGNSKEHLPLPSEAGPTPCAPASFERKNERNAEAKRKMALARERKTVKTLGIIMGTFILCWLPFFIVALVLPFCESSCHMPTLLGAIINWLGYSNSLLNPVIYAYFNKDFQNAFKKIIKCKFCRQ

[4] = human
5‐HT2C receptor = molecular target: T4, 5‐HT2C receptor (Homo sapiens, UniProt P28335); experiment: biochemical; type: binding
T4 sequence (P28335 33-458): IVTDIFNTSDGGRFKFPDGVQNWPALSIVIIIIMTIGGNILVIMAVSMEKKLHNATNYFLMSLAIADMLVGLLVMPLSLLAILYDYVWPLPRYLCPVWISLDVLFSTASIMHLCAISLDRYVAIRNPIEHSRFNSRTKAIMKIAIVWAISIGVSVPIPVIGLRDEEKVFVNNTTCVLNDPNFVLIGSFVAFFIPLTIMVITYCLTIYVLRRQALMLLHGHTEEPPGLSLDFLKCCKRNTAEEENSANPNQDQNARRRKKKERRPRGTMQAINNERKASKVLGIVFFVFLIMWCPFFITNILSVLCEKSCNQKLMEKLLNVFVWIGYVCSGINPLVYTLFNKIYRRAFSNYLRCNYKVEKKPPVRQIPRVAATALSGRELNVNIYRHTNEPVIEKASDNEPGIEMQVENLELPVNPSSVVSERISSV

human NET [5] = molecular target: T1, human NET; experiment: cell-based; type: cell-based
5‐HT2A receptor = 5‐HT2A receptor (Homo sapiens, UniProt P28223); experiment: biochemical; type: binding
[6] = human; remark: listed apart in the source
[7] = mouse; cited from earlier work
[8] = human, in vivo
[9] = in vivo; cited from earlier work
[10] = human, in vivo; remark: listed apart in the source
[11] = read-out: 5‐HT1A Receptor binding Ki ± SD
[12] = read-out: 5‐HT2C Receptor binding Ki ± SD
[13] = read-out: 5‐HT2A Receptor binding Ki ± SD

5‐HT2A receptor, sequence (P28223 whole entry): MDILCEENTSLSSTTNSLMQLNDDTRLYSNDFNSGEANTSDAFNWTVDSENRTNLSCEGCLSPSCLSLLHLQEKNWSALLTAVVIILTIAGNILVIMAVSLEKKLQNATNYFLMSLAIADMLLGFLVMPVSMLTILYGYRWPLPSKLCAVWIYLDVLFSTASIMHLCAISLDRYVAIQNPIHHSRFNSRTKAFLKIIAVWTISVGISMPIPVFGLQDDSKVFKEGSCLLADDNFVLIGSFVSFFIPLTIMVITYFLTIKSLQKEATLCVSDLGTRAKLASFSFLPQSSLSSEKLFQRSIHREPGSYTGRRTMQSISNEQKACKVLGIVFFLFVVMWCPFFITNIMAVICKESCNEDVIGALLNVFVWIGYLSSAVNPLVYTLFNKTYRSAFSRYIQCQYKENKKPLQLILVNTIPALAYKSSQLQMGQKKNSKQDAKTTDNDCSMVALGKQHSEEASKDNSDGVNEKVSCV
T1 sequence (P23975 whole entry): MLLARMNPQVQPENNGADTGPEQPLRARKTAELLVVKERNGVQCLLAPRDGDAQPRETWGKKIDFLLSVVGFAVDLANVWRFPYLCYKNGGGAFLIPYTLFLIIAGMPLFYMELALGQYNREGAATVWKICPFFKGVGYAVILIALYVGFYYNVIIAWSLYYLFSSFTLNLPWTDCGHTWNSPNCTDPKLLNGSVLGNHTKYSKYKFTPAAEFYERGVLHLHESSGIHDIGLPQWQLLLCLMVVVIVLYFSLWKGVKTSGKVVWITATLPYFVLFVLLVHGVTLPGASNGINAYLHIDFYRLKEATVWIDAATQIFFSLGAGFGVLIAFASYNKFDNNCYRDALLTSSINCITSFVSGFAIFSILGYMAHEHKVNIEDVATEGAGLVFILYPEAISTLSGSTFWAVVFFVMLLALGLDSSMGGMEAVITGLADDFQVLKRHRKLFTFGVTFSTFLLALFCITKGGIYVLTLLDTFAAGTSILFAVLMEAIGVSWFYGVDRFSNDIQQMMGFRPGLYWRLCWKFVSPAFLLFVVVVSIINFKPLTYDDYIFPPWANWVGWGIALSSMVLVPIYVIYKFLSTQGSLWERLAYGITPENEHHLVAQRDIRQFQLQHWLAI
human DAT, sequence (Q01959 whole entry): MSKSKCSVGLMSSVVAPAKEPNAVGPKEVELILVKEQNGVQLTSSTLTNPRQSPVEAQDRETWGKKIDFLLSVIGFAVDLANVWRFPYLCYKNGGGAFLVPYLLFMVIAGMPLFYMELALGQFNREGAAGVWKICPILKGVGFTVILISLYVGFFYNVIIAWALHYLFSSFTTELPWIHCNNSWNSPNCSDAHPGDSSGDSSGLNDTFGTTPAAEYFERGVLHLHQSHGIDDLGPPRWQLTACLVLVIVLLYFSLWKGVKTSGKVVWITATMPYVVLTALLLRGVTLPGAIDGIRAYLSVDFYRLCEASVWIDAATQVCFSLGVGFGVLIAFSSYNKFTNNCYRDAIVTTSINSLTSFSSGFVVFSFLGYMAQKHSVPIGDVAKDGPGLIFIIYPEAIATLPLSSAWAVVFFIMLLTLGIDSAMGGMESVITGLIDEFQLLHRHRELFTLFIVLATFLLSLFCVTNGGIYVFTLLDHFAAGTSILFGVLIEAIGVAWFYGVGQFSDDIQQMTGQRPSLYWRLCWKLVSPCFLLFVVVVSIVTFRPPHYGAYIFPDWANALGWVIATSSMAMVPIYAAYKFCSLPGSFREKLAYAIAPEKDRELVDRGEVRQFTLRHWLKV
T2 sequence (P31645 whole entry): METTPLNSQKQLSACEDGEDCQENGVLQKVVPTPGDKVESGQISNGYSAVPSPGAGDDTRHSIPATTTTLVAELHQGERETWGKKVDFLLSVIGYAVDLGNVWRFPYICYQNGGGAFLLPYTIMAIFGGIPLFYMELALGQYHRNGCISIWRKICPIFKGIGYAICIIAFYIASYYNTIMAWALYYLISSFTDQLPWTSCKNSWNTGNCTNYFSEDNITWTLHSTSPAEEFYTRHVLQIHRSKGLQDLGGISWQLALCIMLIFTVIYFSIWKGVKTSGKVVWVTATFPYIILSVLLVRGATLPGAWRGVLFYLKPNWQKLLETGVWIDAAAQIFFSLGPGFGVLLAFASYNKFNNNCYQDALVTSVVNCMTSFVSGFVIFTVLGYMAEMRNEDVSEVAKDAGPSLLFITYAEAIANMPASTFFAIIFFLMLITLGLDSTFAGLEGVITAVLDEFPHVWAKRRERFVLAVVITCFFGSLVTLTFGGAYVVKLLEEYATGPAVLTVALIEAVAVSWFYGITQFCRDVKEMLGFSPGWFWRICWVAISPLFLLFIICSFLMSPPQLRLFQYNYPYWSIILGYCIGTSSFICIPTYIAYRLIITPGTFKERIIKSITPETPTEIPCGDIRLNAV

## CNC(C)Cc1ccc2c(c1)OCO2 (stereo not shown) [MDMA, 3,4‐Methylenedioxymethamphetamine]
Human NET [1]
  Transporter-mediated noradrenaline release: induced significantly greater 5‐HT and noradrenaline release
Human SERT [2]
  Transporter-mediated 5-HT release: induced significantly greater 5‐HT and noradrenaline release

## CCC(=O)C(CC(C)N(C)C)(c1ccccc1)c1ccccc1 (stereo not shown) [Methadone]
Human SERT [3]
  IC50: 0.23 µM
Human SERT [3]; SERT inhibition in vitro IC50
  IC50: 0.23 µM
Human DAT
  IC50: > 100 µM
5‐HT1A receptor
  Ki: > 17 µM
[4]
  WHO database: cases of serotonin syndrome, only suspected cause: 2
  WHO database: cases of serotonin syndrome, only suspected cause or among others: 93
5‐HT2C receptor
  Ki: 2.2 ± 0.3 µM
Human NET [5]
  IC50: 4.1 µM
5‐HT2A receptor
  Ki: 0.61 ± 0.03 µM
[6]
  Medline database: number of published cases of serotonin syndrome: 3

## CN1CC[C@]23c4c5ccc(O)c4O[C@H]2[C@@H](O)C=C[C@H]3[C@H]1C5 [Morphine]
5‐HT1A receptor
  Ki: > 17 µM
[4]
  WHO database: cases of serotonin syndrome, only suspected cause: 1
  WHO database: cases of serotonin syndrome, only suspected cause or among others: 64
5‐HT2A receptor
  Ki: > 13 µM
[6]
  Medline database: number of published cases of serotonin syndrome: 4

## COc1ccc2c3c1O[C@H]1C(=O)CC[C@@]4(O)[C@@H](C2)N(C)CC[C@]314 [Oxycodone]
Human SERT [3]
  IC50: > 100 µM
Human SERT [3]; SERT inhibition in vitro IC50
  IC50: > 100 µM
Human DAT
  IC50: > 100 µM
5‐HT1A receptor
  Ki: > 17 µM
[4]
  WHO database: cases of serotonin syndrome, only suspected cause: 2
  WHO database: cases of serotonin syndrome, only suspected cause or among others: 101
[7]
  fu,plasma: 0.6
[8]
  Cu,plasma: 0.2 µM
Human NET [5]
  IC50: > 100 µM
5‐HT2A receptor
  Ki: > 13 µM
[6]
  Medline database: number of published cases of serotonin syndrome: 13

## CN1CC[C@]23c4c5ccc(O)c4O[C@H]2C(=O)CC[C@@]3(O)[C@H]1C5 [Oxymorphone]
Human SERT [3]
  IC50: > 100 µM
Human DAT
  IC50: > 100 µM
5‐HT1A receptor
  Ki: > 17 µM
[4]
  WHO database: cases of serotonin syndrome, only suspected cause: 0
  WHO database: cases of serotonin syndrome, only suspected cause or among others: 3
Human NET [5]
  IC50: > 100 µM
5‐HT2A receptor
  Ki: > 13 µM
[6]
  Medline database: number of published cases of serotonin syndrome: 0

## CCOC(=O)C1(c2ccccc2)CCN(C)CC1 [Pethidine]
[4]
  WHO database: cases of serotonin syndrome, only suspected cause: 6
  WHO database: cases of serotonin syndrome, only suspected cause or among others: 66
[9]
  Maximal plasma concentration after a single dose: e Maximal concentration after a single dose of pethidine of 50 mg intramuscularly was 2 μM (Erstad et al., 1997). The drug label indicates threefold higher maximal single doses of 150 mg i.m. resulting in threefold higher estimated concentrations up to 6 μM.
[8]
  Cu,plasma: 0.3 to 2.3 µM
[8]; im
  estimated maximal plasma concentration at maximal single dose: e Maximal concentration after a single dose of pethidine of 50 mg intramuscularly was 2 μM (Erstad et al., 1997). The drug label indicates threefold higher maximal single doses of 150 mg i.m. resulting in threefold higher estimated concentrations up to 6 μM.
[10]
  Cu,brain: 0.7–5.4 ^h μM
[6]
  Medline database: number of published cases of serotonin syndrome: 5

## CC[C@@H](c1cccc(O)c1)[C@@H](C)CN(C)C [Tapentadol]
Human SERT [3]
  IC50: 3.3 µM
  SERT/NET ratio (95% CI): 0.39 (0.21–0.70)
Human DAT
  IC50: 78 µM
5‐HT1A receptor
  Ki: > 17 µM
[4]
  WHO database: cases of serotonin syndrome, only suspected cause: 42
  WHO database: cases of serotonin syndrome, only suspected cause or among others: 115
5‐HT2C receptor
  Ki: 12 ± 3.2 µM
[9]
  Ctotal,plasma: 0.1 to 1.9 µM
[8]
  Cu,plasma: 0.1 to 1.5 µM
[10]
  Cu,brain: 0.2–3.5 ^l μM
Human NET [5]
  IC50: 1.3 µM
  fold more potent inhibitor of the NET versus SERT: 2.6 fold
5‐HT2A receptor
  Ki: 6.3 ± 0.2 µM
[6]
  Medline database: number of published cases of serotonin syndrome: 1

## COc1cccc(C2(O)CCCCC2CN(C)C)c1 (stereo not shown) [Tramadol]
Human DAT
  IC50: 100 µM
5‐HT1A receptor
  Ki: > 17 µM
[4]
  WHO database: cases of serotonin syndrome, only suspected cause: 62
  WHO database: cases of serotonin syndrome, only suspected cause or among others: 647
[9]
  Ctotal,plasma: 0.1–2.5 ^a μM
[10]
  Cu,brain: 0.1–4.6 ^j μM
Human NET [5]
  IC50: 2.1 µM
[6]
  Medline database: number of published cases of serotonin syndrome: 26

## COc1ccc(C(CN(C)C)C2(O)CCCCC2)cc1 (stereo not shown) [Venlafaxine]
5‐HT1A receptor
  Ki: > 17 µM
[4]
  WHO database: cases of serotonin syndrome, only suspected cause: 240
  WHO database: cases of serotonin syndrome, only suspected cause or among others: 859
5‐HT2C receptor
  Ki: > 15 µM
[6]
  Medline database: number of published cases of serotonin syndrome: 75

## CCC(=O)C(C[C@H](C)N(C)C)(c1ccccc1)c1ccccc1 [d(S)‐methadone]
Human SERT [3]; read-out: SERT IC50 (95% CI)
  IC50: 5.6 µM
Human DAT; read-out: DAT IC50 (95% CI)
  IC50: > 100 µM
5‐HT1A receptor; [11]
  Ki: > 17 µM
5‐HT2C receptor; [12]
  Ki: 1.9 ± 0.2 µM
Human NET [5]; read-out: NET IC50 (95% CI)
  IC50: 69 µM
5‐HT2A receptor; [13]
  Ki: 0.52 ± 0.11 µM

## CCC(=O)C(C[C@@H](C)N(C)C)(c1ccccc1)c1ccccc1 [l(R)‐methadone]
Human SERT [3]; read-out: SERT IC50 (95% CI)
  IC50: 0.28 µM
Human DAT; read-out: DAT IC50 (95% CI)
  IC50: > 100 µM
5‐HT1A receptor; [11]
  Ki: > 17 µM
5‐HT2C receptor; [12]
  Ki: 2.6 ± 0.3 µM
Human NET [5]; read-out: NET IC50 (95% CI)
  IC50: 2.5 µM
5‐HT2A receptor; [13]
  Ki: 0.72 ± 0.61 µM
